Measurements taken from PMC8603004 (EFSA Journal, 2021).

What was measured:
[1] = Skin sensitisation study
[2] = system: CByB6F1 Hybrid mice; experiment: 28‐day oral gavage study with toxicokinetic evaluation of NOPA; type: in vivo
[3] = system: bone marrow cells of Wistar WI (Han) rats; experiment: In vivo micronucleus test, oral gavage
[4] = males, 700 mg/kg bw per day (control 0/10)

O=[N+]([O-])OCCCO [3‐NOP, propan‐1,3‐diol‐mononitrate]
Skin sensitisation potential [1]: did not show any skin sensitisation potential | Reduction in mean overall food consumption ([2]; 700 mg/kg bw per day, vs control): 6% | NOAEL ([2]; blood biochemical changes at 300 mg/kg bw per day): 100 mg 3‐NOP/kg bw per day | Decrease of absolute thymus weight ([2]; males, 700 mg/kg bw per day): 22% | Decrease of relative thymus weight ([2]; males, 700 mg/kg bw per day): 23% | Incidence of mild inflammation of the eye striated muscle [2, 4]: 4/10 | Incidence of minimal to mild adrenal cortical vacuolation [2, 4]: 4/10 | In vivo MN test result ([3]; 375, 750 and 1,500 mg/kg bw by gavage): Equivocal results | Dose showing severe symptoms and mortality ([3]; dose‐range finding test, gavage): 2,000 mg/kg bw
